From PubChem BioAssay (NCI)
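Protocol summary: plate cells (96-well), add compound at 5 concentrations, incubate 48 h, interpolate endpoints linearly. Abbreviation: GI50, concentration required for 50% inhibition of growth. TGI: total growth inhibition.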

Key:
Assay in all cases: NCI-60 cell line screen, 48 h
786-0 renal = system: 786-0 renal
A498 renal = system: A498 renal
A549 NSCLC = system: A549 NSCLC
ACHN renal = system: ACHN renal
BT-549 breast = system: BT-549 breast
CAKI-1 renal = system: CAKI-1 renal
CCRF-CEM leukemia = system: CCRF-CEM leukemia
COLO 205 colon = system: COLO 205 colon
DU-145 prostate = system: DU-145 prostate
EKVX NSCLC = system: EKVX NSCLC
HCC-2998 colon = system: HCC-2998 colon
HCT-116 colon = system: HCT-116 colon
HCT-15 colon = system: HCT-15 colon
HL-60(TB) leukemia = system: HL-60(TB) leukemia
HOP-62 NSCLC = system: HOP-62 NSCLC
HOP-92 NSCLC = system: HOP-92 NSCLC
HS 578T breast = system: HS 578T breast
HT29 colon = system: HT29 colon
IGROV1 ovarian = system: IGROV1 ovarian
K-562 leukemia = system: K-562 leukemia
KM12 colon = system: KM12 colon
LOX IMVI melanoma = system: LOX IMVI melanoma
M14 melanoma = system: M14 melanoma
MALME-3M melanoma = system: MALME-3M melanoma
MCF7 breast = system: MCF7 breast
MDA-MB-231 breast = system: MDA-MB-231 breast
MDA-MB-435 = system: MDA-MB-435
MOLT-4 leukemia = system: MOLT-4 leukemia
NCI-H226 lung = system: NCI-H226 lung
NCI-H23 lung = system: NCI-H23 lung
NCI-H460 lung = system: NCI-H460 lung
NCI-H522 lung = system: NCI-H522 lung
NCI/ADR-RES ovarian = system: NCI/ADR-RES ovarian
OVCAR-3 ovarian = system: OVCAR-3 ovarian
OVCAR-4 ovarian = system: OVCAR-4 ovarian
OVCAR-5 ovarian = system: OVCAR-5 ovarian
OVCAR-8 ovarian = system: OVCAR-8 ovarian
PC-3 prostate = system: PC-3 prostate
RPMI-8226 leukemia = system: RPMI-8226 leukemia
RXF 393 renal = system: RXF 393 renal
SF-268 CNS = system: SF-268 CNS
SF-295 CNS = system: SF-295 CNS
SF-539 CNS = system: SF-539 CNS
SK-MEL-2 melanoma = system: SK-MEL-2 melanoma
SK-MEL-28 melanoma = system: SK-MEL-28 melanoma
SK-MEL-5 melanoma = system: SK-MEL-5 melanoma
SK-OV-3 ovarian = system: SK-OV-3 ovarian
SN12C renal = system: SN12C renal
SNB-19 CNS = system: SNB-19 CNS
SNB-75 CNS = system: SNB-75 CNS
SR leukemia = system: SR leukemia
SW-620 colon = system: SW-620 colon
T-47D breast = system: T-47D breast
TK-10 renal = system: TK-10 renal
U251 CNS = system: U251 CNS
UACC-257 melanoma = system: UACC-257 melanoma
UO-31 renal = system: UO-31 renal

Structure (SMILES): CCCCS(=O)c1sc2nc(-c3cccs3)cc(-c3ccccc3)c2c1N (centres undefined)
- GI50 (786-0 renal): 8.26 µM
- TGI (786-0 renal): > 100 µM
- GI50 (A498 renal): 8.02 µM
- TGI (A498 renal): 76.9 µM
- GI50 (A549 NSCLC): 9.69 µM
- TGI (A549 NSCLC): > 100 µM
- GI50 (ACHN renal): 9.1 µM
- TGI (ACHN renal): > 95.3 µM
- GI50 (BT-549 breast): 9.24 µM
- TGI (BT-549 breast): 67.9 µM
- GI50 (CAKI-1 renal): 10.3 µM
- TGI (CAKI-1 renal): > 100 µM
- GI50 (CCRF-CEM leukemia): 6.71 µM
- TGI (CCRF-CEM leukemia): > 84.8 µM
- GI50 (COLO 205 colon): 16.9 µM
- TGI (COLO 205 colon): 56.6 µM
- GI50 (DU-145 prostate): 30.4 µM
- TGI (DU-145 prostate): > 100 µM
- GI50 (EKVX NSCLC): 9.48 µM
- TGI (EKVX NSCLC): > 100 µM
- GI50 (HCC-2998 colon): 32 µM
- TGI (HCC-2998 colon): > 100 µM
- GI50 (HCT-116 colon): 12.3 µM
- TGI (HCT-116 colon): > 100 µM
- GI50 (HCT-15 colon): 9.02 µM
- TGI (HCT-15 colon): > 100 µM
- GI50 (HL-60(TB) leukemia): 14.5 µM
- TGI (HL-60(TB) leukemia): > 85.5 µM
- GI50 (HOP-62 NSCLC): 31.1 µM
- TGI (HOP-62 NSCLC): > 100 µM
- GI50 (HOP-92 NSCLC): 5.78 µM
- TGI (HOP-92 NSCLC): 66.1 µM
- GI50 (HS 578T breast): 18.9 µM
- TGI (HS 578T breast): > 100 µM
- GI50 (HT29 colon): 20.6 µM
- TGI (HT29 colon): > 100 µM
- GI50 (IGROV1 ovarian): 20.3 µM
- TGI (IGROV1 ovarian): > 100 µM
- GI50 (K-562 leukemia): 5.96 µM
- TGI (K-562 leukemia): > 100 µM
- GI50 (KM12 colon): 17.8 µM
- TGI (KM12 colon): > 100 µM
- GI50 (LOX IMVI melanoma): 13 µM
- TGI (LOX IMVI melanoma): > 100 µM
- GI50 (M14 melanoma): 17.9 µM
- TGI (M14 melanoma): > 100 µM
- GI50 (MALME-3M melanoma): 26.1 µM
- TGI (MALME-3M melanoma): 75.4 µM
- GI50 (MCF7 breast): 10.4 µM
- TGI (MCF7 breast): > 100 µM
- GI50 (MDA-MB-231 breast): 18.2 µM
- TGI (MDA-MB-231 breast): > 100 µM
- GI50 (MDA-MB-435): 17.3 µM
- TGI (MDA-MB-435): 99.7 µM
- GI50 (MOLT-4 leukemia): 3.8 µM
- TGI (MOLT-4 leukemia): > 62.6 µM
- GI50 (NCI-H226 lung): 17.8 µM
- TGI (NCI-H226 lung): > 100 µM
- GI50 (NCI-H23 lung): 19 µM
- TGI (NCI-H23 lung): > 100 µM
- GI50 (NCI-H460 lung): 13 µM
- TGI (NCI-H460 lung): > 96.8 µM
- GI50 (NCI-H522 lung): 17.3 µM
- TGI (NCI-H522 lung): > 87.8 µM
- GI50 (NCI/ADR-RES ovarian): 6.42 µM
- TGI (NCI/ADR-RES ovarian): > 100 µM
- GI50 (OVCAR-3 ovarian): 14.3 µM
- TGI (OVCAR-3 ovarian): > 100 µM
- GI50 (OVCAR-4 ovarian): 13.5 µM
- TGI (OVCAR-4 ovarian): > 100 µM
- GI50 (OVCAR-5 ovarian): 24.7 µM
- TGI (OVCAR-5 ovarian): > 88.9 µM
- GI50 (OVCAR-8 ovarian): 19.9 µM
- TGI (OVCAR-8 ovarian): > 100 µM
- GI50 (PC-3 prostate): 3.45 µM
- TGI (PC-3 prostate): > 86.6 µM
- GI50 (RPMI-8226 leukemia): 3.59 µM
- TGI (RPMI-8226 leukemia): 23.7 µM
- GI50 (RXF 393 renal): 10.6 µM
- TGI (RXF 393 renal): 58 µM
- GI50 (SF-268 CNS): 23.3 µM
- TGI (SF-268 CNS): > 100 µM
- GI50 (SF-295 CNS): 9.88 µM
- TGI (SF-295 CNS): > 100 µM
- GI50 (SF-539 CNS): 24.7 µM
- TGI (SF-539 CNS): > 100 µM
- GI50 (SK-MEL-2 melanoma): 17.3 µM
- TGI (SK-MEL-2 melanoma): 47.8 µM
- GI50 (SK-MEL-28 melanoma): 29.2 µM
- TGI (SK-MEL-28 melanoma): > 100 µM
- GI50 (SK-MEL-5 melanoma): 13.3 µM
- TGI (SK-MEL-5 melanoma): 28.3 µM
- GI50 (SK-OV-3 ovarian): 27.8 µM
- TGI (SK-OV-3 ovarian): 97.3 µM
- GI50 (SN12C renal): 24.9 µM
- TGI (SN12C renal): > 100 µM
- GI50 (SNB-19 CNS): 18.7 µM
- TGI (SNB-19 CNS): > 100 µM
- GI50 (SNB-75 CNS): 10.2 µM
- TGI (SNB-75 CNS): 98.7 µM
- GI50 (SR leukemia): 6.46 µM
- TGI (SR leukemia): > 68 µM
- GI50 (SW-620 colon): 26 µM
- TGI (SW-620 colon): > 100 µM
- GI50 (T-47D breast): 5.77 µM
- TGI (T-47D breast): 46.7 µM
- GI50 (TK-10 renal): 15 µM
- TGI (TK-10 renal): > 84 µM
- GI50 (U251 CNS): 18 µM
- TGI (U251 CNS): > 100 µM
- GI50 (UACC-257 melanoma): 25.1 µM
- TGI (UACC-257 melanoma): 90.5 µM
- GI50 (UO-31 renal): 4.16 µM
- TGI (UO-31 renal): 49.2 µM
